Reference: patent US5955053A, “Metal chelates as pharmaceutical imaging agents, processes of making such and uses thereof” (Emory University, priority 1996, dated 1999)
Where two headings read alike, the source gives them in different places.

What was measured:
[1] = Renal clearance / renal excretion in rats (statements in words); format: in vivo, rat; details: for Renal clearance of DD-EC compared to LL-EC: vs LL-isomer
Experimental: (§1) Tracheostomy was performed in an anesthetized rat and the left jugular vein was cannulated with one piece of PE-50 tubing for injection of the ^99m Tc radiopharmaceutical. The bladder was catheterized utilizing heat flared PE-50 tubing for urine collection. A bolus injection of the radiopharmaceutical (400-500 μCi/0.25 ml) was given and the rat was imaged (1 frame/10 s) for 22 minutes (130 frames) using a gamma camera. Each animal was sacrificed at the conclusion of the dynamic study and simultaneous static images of the isolated lungs, heart, liver, spleen, stomach, kidneys, bowel and bladder with urine were acquired as well as a static image of the rat carcass without the organs. Total counts for the injected dose were determined from the sum of the isolated organ counts and the carcass counts decay corrected to the time of organ imaging. Regions of interest were drawn around each organ to determined the percent injected dose in each organ.

[2] = cited from earlier work
[3] = Biodistribution in normal rats; format: in vivo, rat; details: ^99m Tc
Experimental: as §1, with “A bolus injection of the radiopharmaceutical (400-500 μCi/0.25 ml) was given and the rat was imaged (1 frame/10 s) for 22 minutes (130 frames) using a gamma camera.” left out

[4] = physiological pH; cited from earlier work
[5] = mice and baboons; cited from earlier work
[6] = in vivo; cited from earlier work
[7] = mice; cited from earlier work
[8] = Normal volunteer studies: plasma clearance, urinary excretion and imaging; format: in vivo, human; details: humans; for Clearance rate (EC/OIH): ± spread as printed
Experimental: ^99m Tc LL-EC, DD-EC and DL-EC were each evaluated in three normal male volunteers. The HPLC purified complexes and phosphate-buffered saline (pH 7.0) were passed through a SEP-PAK Plus C18 cartridge (primed with 1 ml ethanol) and a sterile Millex-GS 0.22 μm filter unit into a sterile, pyrogen-free empty vial. The final concentration was ~2.0 mCi/2.5 ml and the final pH ranged from 5.7 to 7.4. Test samples of each complex were sterile and pyrogen free. Approximately 2 mCi of each ^99m Tc complex were coinjected with 200 μCi of I-131 OIH and plasma samples were obtained at 5, 10, 15, 20, 30 45, 60 and 90 minutes postinjection. The plasma clearances of I-131 OIH and each EC complex were determined using the single injection, two-compartment model of Sapirstein et al., Am. J. Physiol. 181:330-336. The volunteers voided at 30, 90 and 180 minutes postinjection to determine the percent dose in the urine at each time period. A urine sample from the 30 minute urine collection was obtained for HPLC analysis from one of the normal volunteers and analyzed for each complex. One volunteer was imaged with each complex using a simultaneous acquisition with a 20% window centered over the 363 KeV photopeak of I-131 and a second 20% window over the 140 KeV photopeak of ^99m Tc. Data were acquired in a 128×128 matrix using a three phase dynamic acquisition: phase 1 consisted of 24 two second frames, phase 2 consisted of 16 fifteen second frames and phase 3 consisted of 40 thirty second frames. Data were acquired using a general Electric (Milwaukee, Wis.) Star-Cam computer fitted with a high energy collimator. All studies were performed with the approval of the Human Investigations Committee and a signed consent form was obtained.

[9] = in vivo; cited from earlier work; remark: listed apart in the source
[10] = % of that of OIH; cited from earlier work
[11] = cited from earlier work; remark: listed apart in the source
[12] = normal volunteers; increases in renal failure; cited from earlier work
[13] = in vivo; cited from earlier work; remark: listed apart in the source
[14] = in vivo; cited from earlier work; remark: listed apart in the source
[15] = cited from earlier work; remark: listed apart in the source
[16] = Stability of metal chelates; format: physicochemical

thioacetamidethiourea-ethylCOOH [TATU-EtCOOH]
Renal clearance / excretion compared to MAG3 ([1]; vs ^99m Tc MAG3): superior renal clearance

O=C(O)CNC(=O)c1ccccc1[131I] [OIH, ^131 I-orthohippurate]
Clearance relative to PAH ([2]; % of the clearance of PAH): 83%

O=C([O-])[C@H](C[S-])NCCN[C@@H](CS)C(=O)[O-].[O]=[Tc+3] [L,L-EC, L,L-ethylenedicysteine, reference compound]
Biodistribution: Bladder ([3]; 22 minutes post injection): 45.6% of total activity
Biodistribution: Carcass ([3]; 22 minutes post injection): 22.6% of total activity
Biodistribution: Intestines ([3]; 22 minutes post injection): 1.8% of total activity
Biodistribution: Kidneys ([3]; 22 minutes post injection): 24.4% of total activity
Biodistribution: Liver ([3]; 22 minutes post injection): 4.5% of total activity
Biodistribution: Stomach ([3]; 22 minutes post injection): < 1% of total activity
Dianionic form [4]: 80%
Monoanionic form [4]: 20%
Comparison to enantiomer DD-EC [5]: superior to the enantiomer ^99m Tc DD-EC
Pharmacokinetic properties relative to OIH and MAG3 [5]: more closely approached those of OIH than the properties of MAG3
Excretion by the kidneys [6]: excreted rapidly and efficiently by the kidneys
Excretion into the urine [7]: rapidly and efficiently excreted into the urine in mice
Rate of excretion in the urine [8]: excreted at essentially the same rate in the urine
Clearance rate (EC/OIH) [8]: 70 ±3%

^99m Tc mercaptoacetylglycylglycyl-L-alanine [MAG2-Ala]
Characteristics as imaging agents [9]: promising characteristics as imaging agents

L-cysteinylethylenepyridine carboxamide [L-CEPIC]
Biodistribution: Bladder ([3]; 30 minutes post injection): 58.2% of total activity
Biodistribution: Carcass ([3]; 30 minutes post injection): 19.8% of total activity
Biodistribution: Intestines ([3]; 30 minutes post injection): 6.4% of total activity
Biodistribution: Kidneys ([3]; 30 minutes post injection): 7.2% of total activity
Biodistribution: Liver ([3]; 30 minutes post injection): 4.8% of total activity
Biodistribution: Stomach ([3]; 30 minutes post injection): 1.9% of total activity
Removal by the kidneys [1]: rapid and selective removal
Uptake in other major organs [1]: only trace amounts
Renal clearance / excretion compared to MAG3 ([1]; vs ^99m Tc MAG3): even more rapidly excreted by the kidneys than ^99m Tc MAG3

O=C([O-])CN=C([O-])CN=C([O-])CN=C([O-])C[S-].[O]=[99Tc+3] [MAG3, technetium-99m (^99m Tc) mercaptoacetyltriglycine, reference compound]
Biodistribution: Bladder ([3]; 22 minutes post injection): 57% of total activity
Biodistribution: Carcass ([3]; 22 minutes post injection): 14% of total activity
Biodistribution: Intestines ([3]; 22 minutes post injection): 5% of total activity
Biodistribution: Kidneys ([3]; 22 minutes post injection): 23% of total activity
Biodistribution: Liver ([3]; 22 minutes post injection): 1% of total activity
Biodistribution: Stomach ([3]; 22 minutes post injection): < 1% of total activity
Clearance relative to OIH [10]: 50-60%
Plasma-protein binding [11]: very high
Clearance compared to DTPA ([2]; in vivo): higher clearance
Transport into the small intestine via the hepatobiliary system [12]: a small percentage

O=C(O)[C@@H](CS)NCCN[C@H](CS)C(=O)O (99mTc complex, metal not drawn) [D,D-EC, D,D-ethylenedicysteine]
Biodistribution: Bladder ([3]; 22 minutes post injection): 63.2% of total activity
Biodistribution: Carcass ([3]; 22 minutes post injection): 25.4% of total activity
Biodistribution: Intestines ([3]; 22 minutes post injection): 2.6% of total activity
Biodistribution: Kidneys ([3]; 22 minutes post injection): 5.4% of total activity
Biodistribution: Liver ([3]; 22 minutes post injection): 2.9% of total activity
Biodistribution: Stomach ([3]; 22 minutes post injection): < 1% of total activity
Renal clearance of DD-EC compared to LL-EC [1]: superior to L,L-EC in rats
Renal clearance of DD-EC compared to LL-EC ([1]; listed as DD-EC): significantly higher than that of its LL-isomer
Renal clearance / excretion compared to MAG3 ([1]; vs ^99m Tc MAG3): more rapid renal clearance than ^99m Tc MAG3
Renal clearance / excretion compared to MAG3 ([1]; vs ^99m Tc MAG3, listed as DD-EC): significantly higher
Dianionic form [4]: 80%
Monoanionic form [4]: 20%
Imaging properties [8]: excellent imaging properties
Rate of excretion in the urine [8]: excreted at essentially the same rate in the urine
Clearance rate (EC/OIH) [8]: 82 ±8%

^99m Tc mercaptoacetylglycylglycyl-L-glutamine [MAG2-Gln]
Characteristics as imaging agents [9]: promising characteristics as imaging agents

D,L-ethylenedicysteine [DL-EC]
Rate of excretion in the urine [8]: slower rate of excretion
Clearance rate (EC/OIH) [8]: 40 ±5%

C[C@H](NC(=O)CNC(=O)CS)C(=O)NCC(=O)O [MAGAG, mercaptoacetylglycylalanylglycine]
Comparison of diastereomers to MAG3 [13]: one diastereomer comparable and the other considerably inferior

thioacetamidethiourea-para-phenylCOOH [TATU-pPhCOOH]
Rate of renal clearance [1]: cleared at a moderate rate

^99m Tc L,L-ethylenedicysteine diethyl ester [LL-ECD]
Brain perfusion agent [14]: good brain perfusion agent

^99m Tc mercaptoacetylglycylglycyl-L-asparagine [MAG2-Asn]
Characteristics as imaging agents [9]: promising characteristics as imaging agents

^99m Tc mercaptoacetylglycylglycyl-taurine
Comparison to MAG3 in dogs [15]: inferior to ^99m Tc MAG3 in dogs

CC(C)(S)C(=O)NCCCNC(=S)NCCC(=O)O [(Me)2 -TAPTU-EtCOOH, dimethylthioacetamidepropylthiourea-ethylCOOH]
Stability compared with corresponding thioacetamidethiourea derivative [16]: greater stability than the corresponding thioacetamidethiourea derivative
Stability compared with corresponding thioacetamidethiourea derivative ([16]; listed as dimethyl-TAPTU-EtCOOH): more stable than the corresponding thioacetamide-thiourea derivative
